Measured values from US8394742B2, “Methods, compounds and compositions with genotype selective anticancer activity” (The Translation Genomics Research Institute, priority 2005, dated 2013).

How the values were obtained:
HPDE6 (wild-type DPC4) = experiment: MTS cell proliferation assay, HPDE6 cells; type: cell-based; settings: Homo sapiens
Protocol: At the initial screening, compounds are tested in the MTS assay (or other cell proliferation assays such as SRB and Alamar Blue) against the cell line in which the specific gene is either deleted or suppressed by siRNA at a single dose of 10 μM (Toxicity Screening).
Compounds that show more than 50% cell growth inhibition at this concentration are selected to test against both isogenic cell lines (loss-of-function vs. wild type) at three different concentrations (10, 2 and 0.4 μM, Synthetic lethal Screening). Compounds that show a selectivity index ≧5 are selected for next round of screening—Selectivity Screening.
In the Selectivity Screening, compounds are tested against cancer cell lines with a specific loss-of-function mutation and normal cells (HPDE6 and FORF-TERT). Depending on their approximate potency assessed in the Synthetic lethal Screening, compounds are tested in a range of concentrations (8 concentrations per agent) in Selectivity Screening. Compounds that have nM IC50 values in loss-of-function cells and selectivity index values >10 are selected for phenotypic consequence tests and in vivo evaluations in animal models.
The inhibition of cell proliferation by library compounds was evaluated using the CellTiter 96 Non-Radioactive Cell Proliferation Assay following the protocol recommended by the manufacturer (Promega, Madison Wis.). […]

[1] = system: pancreatic cancer cell lines; experiment: MTS cell proliferation assay, panel of pancreatic cancer cell lines; type: cell-based, human
Protocol: (§1) The inhibition of cell proliferation by library compounds was evaluated using the CellTiter 96 Non-Radioactive Cell Proliferation Assay following the protocol recommended by the manufacturer (Promega, Madison Wis.). Briefly, 2000 cells were seeded in each well of 96-well plates in 90 μl growth medium. Cells were allowed to attach overnight followed by addition of 10 μl of serially diluted compounds into the plates. After incubation for 4 days at 37° C. in a humidified incubator, 20 μl of a 20:1 mixture of (3-(4,5-dimethylthiazol-2-yl)-5-(3-carboxymethoxyphenyl)-2-(4-sulfophenyl)-2H-tetrazolium, inner salt (MTS, 2 mg/ml) and an electron coupling reagent, phenazine methosulfate (PMS, 0.92 mg/ml), was added to each well and incubated for 3 hours at 37° C. Absorbance was then measured using the Wallace Victor microplate reader at 490 nm (PerkinElmer, Wellesley, Mass.). Data were expressed as the percentage of cell growth calculated from the absorbance corrected for background absorbance. The surviving fraction of cells was determined by dividing the mean absorbance values of the treated samples by the mean absorbance values of the DMSO control.
Applicants further examined the anti-proliferative activity of UA62001 in a panel of cell lines including normal cell lines which have wildtype DPC4 and pancreatic cancer lines with either wildtype DPC4 or inactivated DPC4 (Table 1). […]

BxPC-3-DPC4 cells = experiment: MTS based cell proliferation assay, BxPC-3-DPC4 cells; design: species or system human; settings: for IC50: BxPC-3-DPC4 (reexpression of wild-type DPC4), MTS, 4 days
Protocol: as §1
After generating the isogenic cell lines for the DPC4 gene, Applicants then carried out a screening process using the cell lines with the aim to identify compounds that selectively kill cells with deficient DPC4 function. […] In each round, the anti-proliferative activity of compounds was evaluated in different cell lines using the CellTiter 96 Non-Radioactive Cell Proliferation Assay (Promega). In the Toxicity Screen, compounds were evaluated in the BxPC-3 parental cell line at a single concentration of 10 μM. […] The activities of a compound in the DPC4 isogenic cell lines were calculated and a selectivity index was determined for each concentration (Selectivity index=Percentage cell survival in BxPC-3-DPC4 cells/Percentage cell survival in BxPC-3-vector cells). […] These ten compounds were further evaluated in third round of screening, the Selectivity screening. […]

caspase-3 = experiment: Caspase-3 activation analysis by Western blot; type: cell-based, human; settings: BxPC-3-vector and BxPC-3-DPC4 cells, 25 μM, 24 hours
Protocol: FIG. 5A provides a graphic depiction of the Annexin V staining. The percentage of cells in the indicated M1 region was 4.6% in the untreated control and 8.2%, in the UA62001-treated (25 μM, 24 hours) BxPC-3 cells. FIG. 5B provides an image of the activation of pro-caspase-3 in BxPC-3 cells after UA62001 treatment. Whole cell extracts were prepared from BxPC-3-vector and BxPC-3-DPC4 cells after UA62001 (25 μM, 24 hours) treatment. Each lane was loaded with 20 μg of total protein. Camptothecin treated Jurkat cell lysate (20 μg) was loaded as the positive control. Lane 1, BxPC-3-DPC4; lane 2, BxPC-3-DPC4-UA62001; lane 3, BxPC-3-vector; lane 4, BxPC-3-vector-UA62001; lane 5, Jurkat-camptothecin.
Whole cell extracts were prepared using Nonidet P-40 (NP-40) lysis buffer (1% IGEPAL CA-630, a substitute for NP-40, 150 mM NaCl, 50 mM Tris-HCl [pH 7.4], 2 mM EDTA). […] Protein concentrations of the lysates or fractionates were determined using the BCA reagents (PIERCE). […] DPC4 protein was detected by a monoclonal antibody (Oncogene Research Products, Boston, Mass.). p21 protein was detected by a polyclonal antibody (Cell Signaling Technology, Beverly, Mass.). Both active and proto-form of the caspas-3 were detected by a polyclonal antibody obtained from BD Pharmingen (BD Biosciences Pharmingen, San Diego, Calif.). β-Actin, which served as a loading control was detected by a monoclonal antibody (Sigma). […]

HS766T (DPC4 deleted) = experiment: MTS cell proliferation assay, HS766T cells; type: cell-based; settings: Homo sapiens
Protocol: as §1
After generating the isogenic cell lines for the DPC4 gene, Applicants then carried out a screening process using the cell lines with the aim to identify compounds that selectively kill cells with deficient DPC4 function. […]

## O=C1c2ccccc2C(=O)c2c1ccc1c(=O)n(-c3ccccc3)[nH]c21 [UA62001, 2-phenyl-1H-Naphth [2,3-g]indazole-3,6,11(2H)-trione]
HPDE6 (wild-type DPC4)
  IC50: > 100 µM
[1]
  IC50 values in pancreatic cancer cell lines: low μM
BxPC-3-DPC4 cells
  IC50: 14.7 ± 4.3 µM
BxPC-3-DPC4 cells; Homo sapiens, 96 h
  IC50: 25 µM
BxPC-3-DPC4 cells; two more stable clones, compared with the original clone
  IC50 values in two more stable clones of BxPC-3-DPC4 cells: very similar to that in the original clone
caspase-3
  cleavage of proto-form of caspase-3: did not induce the cleavage
HS766T (DPC4 deleted)
  IC50: 3.1 µM
